Experimental findings from ChEMBL document CHEMBL3991601, “The target landscape of clinical kinase drugs” (Science, 2017) are described below.

The target of test [1] is Cyclin-dependent kinase 1 (Homo sapiens, UniProt P06493).
In test [2] the target is Cyclin-dependent kinase 3 (Homo sapiens, UniProt Q00526).
Test [3] deals with Tyrosine-protein kinase JAK1 (Homo sapiens, UniProt P23458).
The target of test [4] is Maternal embryonic leucine zipper kinase (Homo sapiens, UniProt Q14680).
The target of test [5] is T1, cGMP-dependent protein kinase 1 (Homo sapiens, UniProt Q13976).
T1 sequence (Q13976 whole entry): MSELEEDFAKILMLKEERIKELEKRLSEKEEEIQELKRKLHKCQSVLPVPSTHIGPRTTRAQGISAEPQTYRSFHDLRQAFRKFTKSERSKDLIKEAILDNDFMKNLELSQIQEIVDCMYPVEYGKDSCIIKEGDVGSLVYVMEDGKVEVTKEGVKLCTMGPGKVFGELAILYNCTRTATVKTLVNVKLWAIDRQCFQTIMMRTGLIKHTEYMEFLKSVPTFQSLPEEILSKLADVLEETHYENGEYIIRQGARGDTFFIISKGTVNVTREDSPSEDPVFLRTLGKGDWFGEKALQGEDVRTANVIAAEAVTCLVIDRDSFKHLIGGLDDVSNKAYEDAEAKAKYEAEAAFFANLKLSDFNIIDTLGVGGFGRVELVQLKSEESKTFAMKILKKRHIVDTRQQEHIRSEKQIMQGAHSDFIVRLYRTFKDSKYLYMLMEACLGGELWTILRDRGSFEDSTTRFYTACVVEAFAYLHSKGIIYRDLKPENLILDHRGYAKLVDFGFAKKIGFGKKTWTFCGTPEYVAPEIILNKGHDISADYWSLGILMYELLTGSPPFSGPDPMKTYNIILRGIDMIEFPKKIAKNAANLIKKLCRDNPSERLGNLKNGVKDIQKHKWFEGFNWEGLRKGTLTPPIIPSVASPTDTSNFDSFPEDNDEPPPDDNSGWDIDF

Test [6] addresses Serine/threonine-protein kinase SIK3 (Homo sapiens, UniProt Q9Y2K2).
Test [7] addresses T2, Thyroid hormone receptor-associated protein 3 (Homo sapiens, UniProt Q9Y2W1).
T2 sequence (Q9Y2W1 whole entry): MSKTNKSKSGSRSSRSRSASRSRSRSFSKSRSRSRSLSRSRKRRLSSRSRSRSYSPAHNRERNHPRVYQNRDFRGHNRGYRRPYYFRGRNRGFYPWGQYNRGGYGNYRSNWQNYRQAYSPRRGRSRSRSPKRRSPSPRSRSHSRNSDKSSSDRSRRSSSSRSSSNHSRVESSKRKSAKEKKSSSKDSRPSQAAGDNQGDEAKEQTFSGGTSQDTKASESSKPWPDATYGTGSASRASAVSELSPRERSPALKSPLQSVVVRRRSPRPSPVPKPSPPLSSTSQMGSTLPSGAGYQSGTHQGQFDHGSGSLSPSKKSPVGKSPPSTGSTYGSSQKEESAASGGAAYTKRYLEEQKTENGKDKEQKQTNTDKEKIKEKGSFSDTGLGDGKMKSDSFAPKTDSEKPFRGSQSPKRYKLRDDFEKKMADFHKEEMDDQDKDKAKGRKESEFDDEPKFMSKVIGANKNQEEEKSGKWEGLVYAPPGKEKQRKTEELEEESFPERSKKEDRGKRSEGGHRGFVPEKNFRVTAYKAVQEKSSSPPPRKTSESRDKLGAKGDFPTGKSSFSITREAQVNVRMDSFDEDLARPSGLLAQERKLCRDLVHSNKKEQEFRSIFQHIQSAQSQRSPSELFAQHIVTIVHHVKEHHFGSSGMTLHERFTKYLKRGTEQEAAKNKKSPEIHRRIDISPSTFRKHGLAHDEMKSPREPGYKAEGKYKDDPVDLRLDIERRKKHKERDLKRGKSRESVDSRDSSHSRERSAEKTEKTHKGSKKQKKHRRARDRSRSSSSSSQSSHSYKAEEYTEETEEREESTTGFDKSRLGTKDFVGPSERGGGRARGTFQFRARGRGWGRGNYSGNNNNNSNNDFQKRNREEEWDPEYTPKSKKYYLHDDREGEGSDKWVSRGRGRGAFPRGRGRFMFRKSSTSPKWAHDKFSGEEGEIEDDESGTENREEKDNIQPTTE

Test [8] deals with T3, Serine/threonine-protein kinase ULK3 (Homo sapiens, UniProt Q6PHR2).
T3 sequence (Q6PHR2 whole entry): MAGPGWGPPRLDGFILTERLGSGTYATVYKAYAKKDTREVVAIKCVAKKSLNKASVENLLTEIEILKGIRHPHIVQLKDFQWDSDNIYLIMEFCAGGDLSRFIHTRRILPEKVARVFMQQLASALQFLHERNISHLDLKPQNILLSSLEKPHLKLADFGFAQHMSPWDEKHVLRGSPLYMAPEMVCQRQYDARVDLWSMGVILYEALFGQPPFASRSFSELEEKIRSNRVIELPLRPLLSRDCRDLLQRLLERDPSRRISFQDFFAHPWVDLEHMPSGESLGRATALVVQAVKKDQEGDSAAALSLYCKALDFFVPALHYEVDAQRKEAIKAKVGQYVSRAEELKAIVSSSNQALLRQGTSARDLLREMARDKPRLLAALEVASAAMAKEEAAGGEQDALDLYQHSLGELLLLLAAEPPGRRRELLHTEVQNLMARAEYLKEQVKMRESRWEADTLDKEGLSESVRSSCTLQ

Test [9] deals with T4, Dual specificity mitogen-activated protein kinase kinase 5 (Homo sapiens, UniProt Q13163).
T4 sequence (Q13163 whole entry): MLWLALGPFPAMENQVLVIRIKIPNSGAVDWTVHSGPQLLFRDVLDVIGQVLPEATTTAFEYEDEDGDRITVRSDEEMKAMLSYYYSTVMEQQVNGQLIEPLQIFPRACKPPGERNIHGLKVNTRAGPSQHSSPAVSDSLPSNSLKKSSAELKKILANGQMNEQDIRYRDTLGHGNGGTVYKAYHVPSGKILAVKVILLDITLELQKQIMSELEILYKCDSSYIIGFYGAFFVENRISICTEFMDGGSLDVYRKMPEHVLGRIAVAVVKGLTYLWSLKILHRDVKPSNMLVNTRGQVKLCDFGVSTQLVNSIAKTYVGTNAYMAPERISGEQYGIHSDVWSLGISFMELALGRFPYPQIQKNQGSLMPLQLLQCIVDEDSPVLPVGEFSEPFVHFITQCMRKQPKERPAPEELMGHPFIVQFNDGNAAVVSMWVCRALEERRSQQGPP

Activity calls are given as the source filed them. For most assays here, no stated cut-off is given here; in the data, actives have a measured Kd and inactives only a lower limit. A value given as a limit tells only on which side of the number the result lay.

Chain of Maternal embryonic leucine zipper kinase (Q14680 whole entry): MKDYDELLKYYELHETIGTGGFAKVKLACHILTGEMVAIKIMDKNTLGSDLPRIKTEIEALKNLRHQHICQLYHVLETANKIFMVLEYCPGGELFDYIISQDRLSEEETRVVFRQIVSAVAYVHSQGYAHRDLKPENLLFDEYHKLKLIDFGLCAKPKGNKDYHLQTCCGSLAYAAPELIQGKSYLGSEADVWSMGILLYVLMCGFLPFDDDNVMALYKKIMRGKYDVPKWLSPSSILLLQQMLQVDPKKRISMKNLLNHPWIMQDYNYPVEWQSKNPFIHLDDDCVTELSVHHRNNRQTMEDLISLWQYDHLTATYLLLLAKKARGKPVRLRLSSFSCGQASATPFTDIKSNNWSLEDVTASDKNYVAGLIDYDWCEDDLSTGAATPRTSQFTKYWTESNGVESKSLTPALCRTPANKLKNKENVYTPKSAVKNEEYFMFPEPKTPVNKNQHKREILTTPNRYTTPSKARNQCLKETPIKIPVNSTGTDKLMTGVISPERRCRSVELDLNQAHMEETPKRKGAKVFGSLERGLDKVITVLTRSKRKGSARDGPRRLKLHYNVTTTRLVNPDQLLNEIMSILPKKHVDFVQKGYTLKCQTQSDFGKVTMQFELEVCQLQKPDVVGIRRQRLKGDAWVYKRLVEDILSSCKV
Chain of Tyrosine-protein kinase JAK1 (P23458 whole entry): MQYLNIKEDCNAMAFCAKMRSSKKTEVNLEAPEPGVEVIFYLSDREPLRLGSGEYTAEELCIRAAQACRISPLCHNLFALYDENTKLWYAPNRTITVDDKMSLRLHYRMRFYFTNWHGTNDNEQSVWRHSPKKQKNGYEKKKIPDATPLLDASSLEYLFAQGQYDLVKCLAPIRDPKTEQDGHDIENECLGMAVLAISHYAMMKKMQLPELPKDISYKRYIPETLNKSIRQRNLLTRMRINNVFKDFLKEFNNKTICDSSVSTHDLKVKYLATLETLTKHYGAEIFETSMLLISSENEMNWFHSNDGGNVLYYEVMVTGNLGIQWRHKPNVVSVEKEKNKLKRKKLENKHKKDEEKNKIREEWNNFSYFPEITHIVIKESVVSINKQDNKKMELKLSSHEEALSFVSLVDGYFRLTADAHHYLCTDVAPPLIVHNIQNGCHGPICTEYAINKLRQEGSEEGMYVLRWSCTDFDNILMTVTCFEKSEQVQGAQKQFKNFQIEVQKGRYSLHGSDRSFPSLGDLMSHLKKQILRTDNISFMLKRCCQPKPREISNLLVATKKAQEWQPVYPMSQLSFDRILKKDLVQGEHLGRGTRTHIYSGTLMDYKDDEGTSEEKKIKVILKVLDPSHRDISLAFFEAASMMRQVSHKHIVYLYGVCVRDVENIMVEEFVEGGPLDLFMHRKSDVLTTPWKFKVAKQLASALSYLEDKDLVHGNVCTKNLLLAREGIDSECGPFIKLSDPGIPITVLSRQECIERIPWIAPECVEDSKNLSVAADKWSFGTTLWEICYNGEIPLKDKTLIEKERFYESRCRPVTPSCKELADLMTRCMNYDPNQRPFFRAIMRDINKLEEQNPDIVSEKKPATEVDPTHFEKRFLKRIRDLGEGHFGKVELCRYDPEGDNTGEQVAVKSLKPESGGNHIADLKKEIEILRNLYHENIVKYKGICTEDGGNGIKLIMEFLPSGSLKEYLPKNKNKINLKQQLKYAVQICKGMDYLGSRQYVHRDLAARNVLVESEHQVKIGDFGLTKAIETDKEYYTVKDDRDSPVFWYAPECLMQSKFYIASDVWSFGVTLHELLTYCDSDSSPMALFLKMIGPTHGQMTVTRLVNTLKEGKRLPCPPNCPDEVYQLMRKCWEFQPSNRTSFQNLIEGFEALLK
Chain of Cyclin-dependent kinase 3 (Q00526 whole entry): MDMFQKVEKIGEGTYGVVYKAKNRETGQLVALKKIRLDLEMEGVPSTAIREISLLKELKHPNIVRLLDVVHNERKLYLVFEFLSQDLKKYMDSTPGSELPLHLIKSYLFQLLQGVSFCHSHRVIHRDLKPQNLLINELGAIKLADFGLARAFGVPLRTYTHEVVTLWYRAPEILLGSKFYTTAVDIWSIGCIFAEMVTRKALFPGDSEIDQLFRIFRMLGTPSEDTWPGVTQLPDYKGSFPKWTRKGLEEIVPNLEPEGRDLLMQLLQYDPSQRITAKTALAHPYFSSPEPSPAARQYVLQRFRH
Chain of Serine/threonine-protein kinase SIK3 (Q9Y2K2 whole entry): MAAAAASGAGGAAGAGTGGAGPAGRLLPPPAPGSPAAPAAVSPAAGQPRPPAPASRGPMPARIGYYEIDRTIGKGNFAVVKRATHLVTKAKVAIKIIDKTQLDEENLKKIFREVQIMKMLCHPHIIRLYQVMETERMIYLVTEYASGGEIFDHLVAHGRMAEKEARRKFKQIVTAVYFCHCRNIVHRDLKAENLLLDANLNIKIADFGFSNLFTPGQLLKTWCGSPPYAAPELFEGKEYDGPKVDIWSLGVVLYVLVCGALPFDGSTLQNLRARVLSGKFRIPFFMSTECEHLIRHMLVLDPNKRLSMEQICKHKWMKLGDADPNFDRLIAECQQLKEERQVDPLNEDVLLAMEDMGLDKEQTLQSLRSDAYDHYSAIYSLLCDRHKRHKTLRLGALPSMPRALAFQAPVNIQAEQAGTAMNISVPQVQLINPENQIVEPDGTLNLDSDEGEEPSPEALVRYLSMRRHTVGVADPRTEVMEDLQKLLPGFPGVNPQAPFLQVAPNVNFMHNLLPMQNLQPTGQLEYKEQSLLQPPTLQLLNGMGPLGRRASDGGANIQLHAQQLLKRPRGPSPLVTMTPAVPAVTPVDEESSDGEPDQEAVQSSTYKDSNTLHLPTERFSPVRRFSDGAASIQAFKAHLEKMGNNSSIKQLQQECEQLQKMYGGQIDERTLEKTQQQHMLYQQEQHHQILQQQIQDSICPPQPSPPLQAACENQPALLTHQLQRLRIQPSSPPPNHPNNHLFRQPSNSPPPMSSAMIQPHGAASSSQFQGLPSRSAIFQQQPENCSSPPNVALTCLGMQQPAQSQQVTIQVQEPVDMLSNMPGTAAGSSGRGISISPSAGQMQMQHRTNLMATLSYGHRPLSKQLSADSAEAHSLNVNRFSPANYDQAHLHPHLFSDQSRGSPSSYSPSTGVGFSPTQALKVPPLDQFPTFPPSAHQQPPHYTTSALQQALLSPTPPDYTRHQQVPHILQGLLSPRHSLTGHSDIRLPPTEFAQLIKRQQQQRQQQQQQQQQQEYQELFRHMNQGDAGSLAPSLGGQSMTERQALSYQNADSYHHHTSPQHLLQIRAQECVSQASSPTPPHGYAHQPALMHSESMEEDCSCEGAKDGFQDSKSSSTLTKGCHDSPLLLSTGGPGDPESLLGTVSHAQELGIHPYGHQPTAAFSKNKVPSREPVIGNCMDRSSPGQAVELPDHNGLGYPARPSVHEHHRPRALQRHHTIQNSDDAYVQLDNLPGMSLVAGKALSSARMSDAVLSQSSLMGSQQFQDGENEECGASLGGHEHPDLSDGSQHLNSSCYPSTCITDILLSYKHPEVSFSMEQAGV
Chain of Cyclin-dependent kinase 1 (P06493 whole entry): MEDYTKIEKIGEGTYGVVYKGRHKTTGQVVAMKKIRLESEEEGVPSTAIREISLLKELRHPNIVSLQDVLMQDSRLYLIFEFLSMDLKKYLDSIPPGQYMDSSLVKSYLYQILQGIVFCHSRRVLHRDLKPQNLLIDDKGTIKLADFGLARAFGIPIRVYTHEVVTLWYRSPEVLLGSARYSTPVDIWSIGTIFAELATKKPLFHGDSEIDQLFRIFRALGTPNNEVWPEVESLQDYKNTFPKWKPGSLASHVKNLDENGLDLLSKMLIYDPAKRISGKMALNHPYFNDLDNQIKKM

In the case of `Cc1nc2cc(-c3nn(C(C)C)c4ncnc(N)c34)ccc2o1`, the Kd (commonly the free concentration of one partner at which half of the binding sites on the other are occupied at equilibrium, for simple one-to-one binding) was > 30 µM (inactive) in [1]; > 30 µM (inactive) in [2]; > 30 µM (inactive) in test [3]; 8.21 µM (active) in test [4]; > 30 µM (inactive) in [5]; > 30 µM (inactive) in [6]. For the same compound, the Kd in test [7] and in test [8] was > 30 µM (inactive) each time.

On to `COc1cc(Nc2ncc3c(n2)-c2ccc(Cl)cc2C(c2c(F)cccc2OC)=NC3)ccc1C(=O)O` [ALISERTIB], for which the Kd in test [2], in [3], in test [9], in test [6] and in [7] was > 30 µM (inactive) in each case.

As for `O=C(Nc1c[nH]nc1-c1nc2cc(CN3CCOCC3)ccc2[nH]1)NC1CC1` [AT-9283], the Kd in test [1] is > 30 µM (inactive); in test [2], > 30 µM (inactive); in test [3], 0.368 µM (active); in test [9], 0.047 µM (active); in test [5], > 30 µM (inactive); in [6] it was 4.11 µM (active). The Kd in test [7] was > 30 µM (inactive).

Turning to `CNC(=O)c1ccccc1Sc1ccc2c(/C=C/c3ccccn3)n[nH]c2c1` [AXITINIB], the Kd in test [1] and in test [7] was > 30 µM (inactive) throughout.

Consider `CC(C)(C)c1nc(-c2cccc(NS(=O)(=O)c3c(F)cccc3F)c2F)c(-c2ccnc(N)n2)s1` [DABRAFENIB], for which the Kd in test [1] is 0.364 µM (active); in [3] it was > 30 µM (inactive); in test [9] it was 2.29 µM (active); in test [4], 1.82 µM (active); in test [5], > 30 µM (inactive); in test [6], 2 µM (active). Besides, the Kd was > 30 µM (inactive) in test [7] and 1.48 µM in test [8].

As to `C[C@@H](Oc1cc(-n2cnc3ccc(CN4CCN(C)CC4)cc32)sc1C(N)=O)c1ccccc1C(F)(F)F` [GSK-461364], the Kd in test [1] and in test [7] was > 30 µM (inactive) each time.

As to `Cc1[nH]c(/C=C2\C(=O)Nc3ccccc32)c(C)c1CCC(=O)O` [ORANTINIB], the Kd in test [2] is > 30 µM (inactive); in test [3], > 30 µM (inactive); in test [9], 4.94 µM (active); in [6], > 30 µM (inactive); in [7], > 30 µM (inactive); in test [8], 1.46 µM (active).

With `NC(=O)c1c(OCc2c(F)cc(Br)cc2F)nsc1NC(=O)NCCCCN1CCCC1` [OSI-632], the Kd in test [2], in [3], in [9], in [7] and in [8] was > 30 µM (inactive) throughout.

On to `CC(=O)NCC(=O)N1[C@@H]2CC[C@H]1c1ccc(Nc3ncc(C(F)(F)F)c(NC4CCC4)n3)cc12` [PF-03814735], for which the Kd in [2] is 1.53 µM (active); in [6], 9.65 µM (active); in [7], > 30 µM (inactive); in test [8] it was 0.019 µM (active).

`N#CC[C@H](C1CCCC1)n1cc(-c2ncnc3[nH]ccc23)cn1` [RUXOLITINIB]: the Kd in test [1] and in [7] was > 30 µM (inactive) each time.

Consider `CN1CCN(CCOc2cc(OC3CCOCC3)c3c(Nc4c(Cl)ccc5c4OCO5)ncnc3c2)CC1` [SARACATINIB], for which the Kd in test [1] was > 30 µM (inactive); in [2], > 30 µM (inactive); in test [3], > 30 µM (inactive); in test [4], > 30 µM (inactive); in test [5], > 30 µM (inactive); in test [6] it was 4.85 µM (active). Moreover, the Kd in [7] and in [8] was > 30 µM (inactive) each time.

Consider `C[C@@H](N)c1ccc(C(=O)Nc2ccnc3[nH]ccc23)cc1` [Y-39983], for which the Kd in test [1], in test [2], in test [3], in [9], in test [4] and in test [5] was > 30 µM (inactive) in each case. Besides, the results for the dissociation constant Kd in test [6] and in test [8] were 0.071 µM (active) and > 30 µM (inactive), respectively.
